From patent US12655116B2, “Substituted isophthalic acid diamides” (Bayer Aktiengesellschaft, priority 2020, dated 2026)

Key:
ABUTH [1] = assay: Pre-emergence herbicidal action against ABUTH; type: in vivo, Abutilon theophrasti; settings: for Pre-emergence action against ABUTH (herbicidal activity): 80 g/ha, scored visually after 3 weeks vs untreated controls (100% = plants have died, 0% = like control plants); for Pre-emergence action against ABUTH (herbicidal activity in percent): dosage 20 g/ha, scored visually after 3 weeks vs untreated controls, 100% = plants have died, 0% = like control plants
Outline: (§1)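 Visual rating at 3 weeks vs untreated pots; 0–100% scale, 100% = plants died. Treatment: aqueous WP/EC spray onto covering soil, 600–800 l/ha, 0.2% wetter, seeds in sandy loam.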

AMARE [2] = assay: Pre-emergence herbicidal action against AMARE; type: in vivo, Amaranthus retroflexus
Outline: as §1

ECHCG [3] = assay: Pre-emergence herbicidal action against ECHCG; type: in vivo, Echinochloa crus-galli; settings: 80 g/ha
Outline: as §1

MATIN [4] = assay: Pre-emergence herbicidal action against MATIN; type: in vivo, Matricaria inodora
Outline: as §1

PHBPU [5] = assay: Pre-emergence herbicidal action against PHBPU; type: in vivo, Pharbitis purpurea; settings: dosage 80 g/ha
Outline: as §1

POLCO = assay: Pre-emergence herbicidal action against POLCO; type: in vivo, Polygonum convolvulus; settings: dosage 80 g/ha
Outline: as §1

SETVI [6] = assay: Pre-emergence herbicidal action against SETVI; type: in vivo, Setaria viridis; settings: dosage 80 g/ha
Outline: as §1

VERPE [7] = assay: Pre-emergence herbicidal action against VERPE; type: in vivo, Veronica persica; settings: dosage 80 g/ha
Outline: as §1

VIOTR [8] = assay: Pre-emergence herbicidal action against VIOTR; type: in vivo, Viola tricolor
Outline: as §1

DIGSA [9] = assay: Pre-emergence herbicidal action against DIGSA; type: in vivo, Digitaria sanguinalis
Outline: as §1

ABUTH [10] = assay: Post-emergence herbicidal action against ABUTH; type: in vivo, Abutilon theophrasti; settings: visual assessment about 3 weeks after treatment vs untreated controls
Outline: (§2)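 Weeds in sandy loam soil received a post-emergence spray at the one-leaf stage. Compounds were applied as WP or EC in water, 600 to 800 l/ha, with 0.2% wetting agent. Activity in % was judged visually after roughly 3 weeks against untreated plants.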

AMARE [11] = assay: Post-emergence herbicidal action against AMARE; type: in vivo, Amaranthus retroflexus; settings: 20 g/ha, visual assessment about 3 weeks after treatment, 100% = plants have died, 0% = like control plants
Outline: as §2

ECHCG [12] = assay: Post-emergence herbicidal action against ECHCG; type: in vivo, Echinochloa crus-galli
Outline: as §2

MATIN [13] = assay: Post-emergence herbicidal action against MATIN; type: in vivo, Matricaria inodora
Outline: as §2

PHBPU [14] = assay: Post-emergence herbicidal action against PHBPU; type: in vivo, Pharbitis purpurea; settings: dosage 20 g/ha
Outline: as §2

SETVI [15] = assay: Post-emergence herbicidal action against SETVI; type: in vivo, Setaria viridis
Outline: as §2

VERPE [16] = assay: Post-emergence herbicidal action against VERPE; type: in vivo, Veronica persica
Outline: as §2

VIOTR [17] = assay: Post-emergence herbicidal action against VIOTR; type: in vivo, Viola tricolor
Outline: as §2

DIGSA [18] = assay: Post-emergence herbicidal action against DIGSA; type: in vivo, Digitaria sanguinalis; settings: for Post-emergence action against DIGSA in %: 5 g/ha; for Post-emergence action against DIGSA: 20 g/ha
Outline: as §2

[19] = 20 g/ha, scored visually after 3 weeks vs untreated controls, 100% = plants have died, 0% = like control plants
[20] = 80 g/ha, scored visually after 3 weeks vs untreated controls (100% = plants have died, 0% = like control plants)

CCc1c(C(=O)Nc2nnnn2CC)ccc(C(F)F)c1C(=O)NC [Example 2-277]
Pre-emergence action against ABUTH (herbicidal activity) (ABUTH [1]): 100%
Pre-emergence action against ABUTH (herbicidal activity in percent) (ABUTH [1]): 90%
Pre-emergence action against AMARE in % (AMARE [2]; [19]): 100%
Pre-emergence action against AMARE in % (AMARE [2]; [20]): 100%
Pre-emergence action against ECHCG in % (ECHCG [3]): 90%
Pre-emergence action against MATIN in % (MATIN [4]; dosage 20 g/ha): 90%
Pre-emergence action against MATIN in % (MATIN [4]; dosage 80 g/ha): 100%
Pre-emergence action against PHBPU in % (PHBPU [5]): 80%
Pre-emergence action against POLCO in % (POLCO): 90%
Pre-emergence action against SETVI in % (SETVI [6]): 80%
Pre-emergence action against VERPE in % (VERPE [7]): 100%
Pre-emergence action against VIOTR in % (VIOTR [8]; dosage 20 g/ha): 100%
Pre-emergence action against VIOTR in % (VIOTR [8]; dosage 80 g/ha): 100%
Pre-emergence action against DIGSA in % (DIGSA [9]; dosage 20 g/ha): 90%
Pre-emergence action against DIGSA in % (DIGSA [9]; dosage 80 g/ha): 100%
Post-emergence action against ABUTH in % (ABUTH [10]; dosage 5 g/ha): 80%
Post-emergence action against ABUTH in % (ABUTH [10]; dosage 20 g/ha): 90%
Post-emergence action at 20 g/ha against AMARE in % (AMARE [11]): 90%
Post-emergence action against ECHCG in % (ECHCG [12]; dosage 20 g/ha): 100%
Post-emergence action against MATIN in % (MATIN [13]; dosage 5 g/ha): 90%
Post-emergence action against MATIN in % (MATIN [13]; dosage 20 g/ha): 90%
Post-emergence action against PHBPU in % (PHBPU [14]): 90%
Post-emergence action against SETVI in % (SETVI [15]; dosage 5 g/ha): 90%
Post-emergence action against SETVI in % (SETVI [15]; dosage 20 g/ha): 90%
Post-emergence action against VERPE in % (VERPE [16]; 5 g/ha): 80%
Post-emergence action against VERPE in % (VERPE [16]; 20 g/ha): 90%
Post-emergence action against VIOTR in % (VIOTR [17]; 5 g/ha): 90%
Post-emergence action against VIOTR in % (VIOTR [17]; 20 g/ha): 90%
Post-emergence action against DIGSA in % (DIGSA [18]): 90%
Post-emergence action against DIGSA (DIGSA [18]): 90%

CCn1nnnc1NC(=O)c1ccc(C(F)F)c(C(=O)NC2CC2)c1C1CC1 [Example 2-306]
Pre-emergence action against ABUTH (herbicidal activity) (ABUTH [1]): 100%
Pre-emergence action against ABUTH (herbicidal activity in percent) (ABUTH [1]): 100%
Pre-emergence action against AMARE in % (AMARE [2]; [19]): 90%
Pre-emergence action against AMARE in % (AMARE [2]; [20]): 100%
Pre-emergence action against ECHCG in % (ECHCG [3]): 100%
Pre-emergence action against MATIN in % (MATIN [4]; dosage 20 g/ha): 90%
Pre-emergence action against MATIN in % (MATIN [4]; dosage 80 g/ha): 100%
Pre-emergence action against PHBPU in % (PHBPU [5]): 100%
Pre-emergence action against POLCO in % (POLCO): 80%
Pre-emergence action against SETVI in % (SETVI [6]): 100%
Pre-emergence action against VERPE in % (VERPE [7]): 100%
Pre-emergence action against VIOTR in % (VIOTR [8]; dosage 20 g/ha): 100%
Pre-emergence action against VIOTR in % (VIOTR [8]; dosage 80 g/ha): 100%
Pre-emergence action against DIGSA in % (DIGSA [9]; dosage 20 g/ha): 100%
Pre-emergence action against DIGSA in % (DIGSA [9]; dosage 80 g/ha): 100%
Post-emergence action against ABUTH in % (ABUTH [10]; dosage 20 g/ha): 80%
Post-emergence action at 20 g/ha against AMARE in % (AMARE [11]): 90%
Post-emergence action against ECHCG in % (ECHCG [12]; dosage 5 g/ha): 90%
Post-emergence action against ECHCG in % (ECHCG [12]; dosage 20 g/ha): 90%
Post-emergence action against MATIN in % (MATIN [13]; dosage 5 g/ha): 80%
Post-emergence action against MATIN in % (MATIN [13]; dosage 20 g/ha): 90%
Post-emergence action against PHBPU in % (PHBPU [14]): 80%
Post-emergence action against SETVI in % (SETVI [15]; dosage 5 g/ha): 80%
Post-emergence action against SETVI in % (SETVI [15]; dosage 20 g/ha): 80%
Post-emergence action against VERPE in % (VERPE [16]; 20 g/ha): 90%
Post-emergence action against VIOTR in % (VIOTR [17]; 5 g/ha): 90%
Post-emergence action against VIOTR in % (VIOTR [17]; 20 g/ha): 90%
Post-emergence action against DIGSA in % (DIGSA [18]): 80%
Post-emergence action against DIGSA (DIGSA [18]): 90%
